Test results: USRE48687E1, “Pyridinylaminopyrimidine derivatives, preparation process and use thereof” (Shanghai Allist Pharmaceuticals Co., Ltd., priority 2014, dated 2021)

Key:
Assay type in all cases: cell-based
Conditions in all cases: SRB staining
[1] = tested on: human skin cancer cell (A431, wild-type EGFR); experiment: Proliferation inhibition (SRB) on human skin cancer cell A431
Description: (§1) The pharmacodynamic action of the compound of the present invention in terms of inhibiting the proliferation of cancer cells may be assayed by conventional methods. […] Inhibition ratio (%)=[(blank control OD−inhibitor OD)/blank control OD]×100%
(§2) Blank control OD: the OD value of the well of normally growed cells without the action of a drug.
(§3) Inhibitor OD: the OD value of the well of cells with the action of the added compounds to be screened.
(§4) The median inhibitory concentration (IC50) value is obtained by the software GraphPad Prism 5.0 by the 4-parameter logistic curve fit calculation. Each experiment is repeated three times, and the average IC50 value for three experiments is used as the final index for the inhibitory ability.
(§5) Cells in the logarithmic phase were inoculated to 96-well culture plates (cell density: 5000/well, cell suspension: 180 μl/well), and cultured at 37° C. under 5% CO2 for 24 hours. After the culturing, the cells adhered to the well walls. Each of compounds was dissolved in DMSO in advance to formulate a […] stock solution. Upon testing, the stock solution was diluted with complete medium to 10 times the target concentration in another 96-cell plate. And then the compound was added at 20 μl/cell in the 96-well plate in which the cells were inoculated, i.e. the target concentration could be reached. The well for each concentration was triplicated, and the blank control was established. Cells continued to be cultured at 37° C. under 5% CO2 for 72 hours. After the termination of culturing, 50 μl pre-cooled (4° C.) 50% trichloroacetic acid, i.e., TCA was added to each of wells (final concentration=10%), and was placed at 4° C. for 1 hour to fix the cells. The resulting matter was washed with purified water for at least 5 times, and dried naturally in air or at 60° C. in an oven. 4 mg/ml Sulforhodamine B (SRB) solution prepared by 1% glacial acetic acid/purified water was added at 100 μl/well to each well so as to stain for 1 hour at room temperature. The supernatant was discarded. The residue was washed with 1% acetic acid for at least 5 times to remove the non-specifically binding, and dried for use. To each well was added 150 μl of 10 mM Tris-HCl solution for dissolving the contents therein.

[2] = tested on: human lung cancer cell (H1975, EGFR L858R/T790M resistant mutation); experiment: Proliferation inhibition (SRB) on human lung cancer cell H1975
Description: as §1, §2, §3, §4, §5

[3] = tested on: human lung cancer cell (HCC827, EGFR Exon 19 deletion activating mutation); experiment: Proliferation inhibition (SRB) on human lung cancer cell HCC827
Description: as §1, §2, §3, §4, §5

Row | SMILES | IC50 ([1]; Homo sapiens, A-431, 72 h) | IC50 ([2]; Homo sapiens, NCI-H1975, 72 h) | IC50 ([3]; Homo sapiens, HCC827, 72 h) | other results
1 | C=CC(=O)Nc1cc(Nc2nccc(-c3cn(C)c4cc(F)c(F)cc34)n2)c(OC(C)C)nc1N(C)CCN(C)C [Example 18 compound, N-{2-{[2-(dimethylamino)ethyl](methyl)amino}-6-isopropyloxy-5-{[4-(1-methyl-5,6-difluoro-1H-indol-3-yl)pyrimidin-2-yl]amino}pyridin-3-yl}acrylamide methanesulfonate] |  |  |  | IC50 ([1]; 72 hours, methanesulfonate): 341 nM; IC50 ([2]; 72 hours, methanesulfonate): 5.07 nM; IC50 ([3]; 72 hours, methanesulfonate): 2.24 nM
2 | C=CC(=O)Nc1cc(Nc2ncc(Cl)c(-c3cn(C)c4ccccc34)n2)c(OC(C)C)nc1N(C)CCN(C)C [Example 1 compound, N-{2-{[2-(dimethylamino)ethyl](methyl)amino}-6-isopropyloxy-5-{5-chloro-[4-(1-methyl-1H-indol-3-yl)pyrimidin-2-yl]amino}pyridin-3-yl}acrylamide] |  |  |  | IC50 ([1]; 72 hours): 140 nM; IC50 ([2]; 72 hours): 5.64 nM; IC50 ([3]; 72 hours): 2.15 nM
3 | C=CC(=O)Nc1cc(Nc2ncc(Cl)c(-c3cn(C)c4cc(F)c(F)cc34)n2)c(OC(C)C)nc1N(C)CCN(C)C [Example 8 compound, N-{2-{[2-(dimethylamino)ethyl](methyl)amino}-6-isopropyloxy-5-{5-chloro-[4-(1-methyl-5,6-difluoro-1H-indol-3-yl)pyrimidin-2-yl]amino}pyridin-3-yl}acrylamide] | 375 nM | 8.4 nM | 5.98 nM | 
4 | C=CC(=O)Nc1cc(Nc2nccc(-c3cn(C)c4ccccc34)n2)c(OCC(F)(F)F)nc1N(C)CCN(C)C [Example 3 compound, N-{2-{[2-(dimethylamino)ethyl](methyl)amino}-6-(2,2,2-trifluoroethoxyl)-5-{[4-(1-methyl-1H-indol-3-yl)pyrimidin-2-yl]amino}pyridin-3-yl}acrylamide] | 224 nM | 2.28 nM | 1.34 nM | 
5 | C=CC(=O)Nc1cc(Nc2nccc(-c3cn(C)c4ccc(F)cc34)n2)c(OC(C)C)nc1N(C)CCN(C)C [Example 5 compound, N-{2-{[2-(dimethylamino)ethyl](methyl)amino}-6-isopropyloxy-5-{[4-(1-methyl-5-fluoro-1H-indol-3-yl)pyrimidin-2-yl]amino}pyridin-3-yl}acrylamide] | 181 nM | 4.83 nM | 2.58 nM | 
6 | C=CC(=O)Nc1cc(Nc2ncc(Cl)c(-c3cn(C)c4ccc(F)cc34)n2)c(OC(C)C)nc1N(C)CCN(C)C [Example 9 compound, N-{2-{[2-(dimethylamino)ethyl](methyl)amino}-6-isopropyloxy-5-{5-chloro-[4-(1-methyl-5-fluoro-1H-indol-3-yl)pyrimidin-2-yl]amino}pyridin-3-yl}acrylamide] | 697 nM | 12.6 nM | 1.17 nM | 
7 | C=CC(=O)Nc1cc(Nc2ncc(Cl)c(-c3cn(C)c4cc(F)c(F)cc34)n2)c(OC(C)C)nc1N(C)CCN(C)C [Example 17 compound, N-{2-{[2-(dimethylamino)ethyl](methyl)amino}-6-isopropyloxy-5-{5-chloro-[4-(1-methyl-5,6-difluoro-1H-indol-3-yl)pyrimidin-2-yl]amino}pyridin-3-yl}acrylamide methanesulfonate] |  |  |  | IC50 ([2]; 72 hours, methanesulfonate): 7.63 nM; IC50 ([3]; 72 hours, methanesulfonate): 5.56 nM
8 | C=CC(=O)Nc1cc(Nc2nccc(-c3cn(C)c4cc(F)c(F)cc34)n2)c(OC(C)C)nc1N(C)CCN(C)C [Example 6 compound, N-{2-{[2-(dimethylamino)ethyl](methyl)amino}-6-isopropyloxy-5-{[4-(1-methyl-5,6-difluoro-1H-indol-3-yl)pyrimidin-2-yl]amino}pyridin-3-yl}acrylamide] | 338 nM | 5.2 nM | 2.36 nM | 
9 | C=CC(=O)Nc1cc(Nc2nccc(-c3cn(C)c4ccccc34)n2)c(OC)cc1N(C)CCN(C)C [AZD9291, reference compound] |  |  |  | IC50 ([1]; Homo sapiens, A-431, 72 hours): 70.4 nM; IC50 ([3]; Homo sapiens, 72 hours): 3.8 nM
10 | C=CC(=O)Nc1cc(Nc2ncc(Cl)c(-c3cn(C)c4ccccc34)n2)c(OCC(F)(F)F)nc1N(C)CCN(C)C [Example 4 compound, N-{2-{[2-(dimethylamino)ethyl](methyl)amino}-6-(2,2,2-trifluoroethoxyl)-5-{5-chloro-[4-(1-methyl-1H-indol-3-yl)pyrimidin-2-yl]amino}pyridin-3-yl}acrylamide] | 164 nM | 6.15 nM | 1.92 nM | 
11 | C=CC(=O)Nc1cc(Nc2nccc(-c3cn(C)c4ccccc34)n2)c(OC(C)C)nc1N(C)CCN(C)C [Example 2 compound, N-{2-{[2-(dimethylamino)ethyl](methyl)amino}-6-isopropyloxy-5-{[4-(1-methyl-1H-indol-3-yl)pyrimidin-2-yl]amino}pyridin-3-yl}acrylamide] | 196 nM | 5.54 nM | 4.22 nM | 

Second part, led by results:

Row | IC50 ([1]; Homo sapiens, A-431, 72 h) | IC50 ([2]; Homo sapiens, NCI-H1975, 72 h) | IC50 ([3]; Homo sapiens, HCC827, 72 h) | SMILES | other results
12 | 370 nM | 18.6 nM | 142 nM | C=CC(=O)Nc1cc(Nc2ncc(Cl)c(-c3cnn(C)c3)n2)c(OC(C)C)nc1N(C)CCN(C)C [Example 21 compound, N-{2-{[2-(dimethylamino)ethyl](methyl)amino}-6-isopropyloxy-5-{[5-chloro-4-(1-methyl-1H-pyrazol-4-yl)pyrimidin-2-yl]amino}pyridin-3-yl}acrylamide] | 
13 | 209 nM | 5.33 nM | 2.62 nM | C=CC(=O)Nc1cc(Nc2nccc(-c3cn(C)c4cc(F)ccc34)n2)c(OC(C)C)nc1N(C)CCN(C)C [Example 13 compound, N-{2-{[2-(dimethylamino)ethyl](methyl)amino}-6-isopropyloxy-5-{[4-(1-methyl-6-fluoro-1H-indol-3-yl)pyrimidin-2-yl]amino}pyridin-3-yl}acrylamide] | 
14 | 209 nM | 2.56 nM | 2.62 nM | C=CC(=O)Nc1cc(Nc2ncc(Cl)c(-c3cn(C)c4ncccc34)n2)c(OC(C)C)nc1N(C)CCN(C)C [Example 19 compound, N-{2-{[2-(dimethylamino)ethyl](methyl)amino}-6-isopropyloxy-5-{[5-chloro-4-(1-methyl-1H-pyrrolo[2,3-b]pyridin-3-yl)pyrimidin-2-yl]amino}pyridin-3-yl}acrylamide] | 
15 | 339 nM | 9.01 nM | 0.96 nM | C=CC(=O)Nc1cc(Nc2ncc(F)c(-c3cn(C)c4cc(F)c(F)cc34)n2)c(OC(C)C)nc1N(C)CCN(C)C [Example 12 compound, N-{2-{[2-(dimethylamino)ethyl](methyl)amino}-6-isopropyloxy-5-{5-fluoro-[4-(1-methyl-5,6-difluoro-1H-indol-3-yl)pyrimidin-2-yl]amino}pyridin-3-yl}acrylamide] | 
16 | 337 nM | 6.28 nM | 0.69 nM | C=CC(=O)Nc1cc(Nc2nccc(-c3cn(C)c4ccc(F)cc34)n2)c(OCC(F)(F)F)nc1N(C)CCN(C)C [Example 15 compound, N-{2-{[2-(dimethylamino)ethyl](methyl)amino}-6-(2,2,2-trifluoroethoxyl)-5-{[4-(1-methyl-5-fluoro-1H-indol-3-yl)pyrimidin-2-yl]amino}pyridin-3-yl}acrylamide] | 
17 | 242 nM | 5.17 nM | 0.77 nM | C=CC(=O)Nc1cc(Nc2ncc(F)c(-c3cn(C)c4ccccc34)n2)c(OCC(F)(F)F)nc1N(C)CCN(C)C [Example 14 compound, N-{2-{[2-(dimethylamino)ethyl](methyl)amino}-6-(2,2,2-trifluoroethoxyl)-5-{5-fluoro-[4-(1-methyl-1H-indol-3-yl)pyrimidin-2-yl]amino}pyridin-3-yl}acrylamide] | 
18 | 801 nM | 42.4 nM | 8.97 nM | C=CC(=O)Nc1cc(Nc2ncc(Cl)c(-c3cnc4c(ccn4C)c3)n2)c(OC(C)C)nc1N(C)CCN(C)C [Example 20 compound, N-{2-{[2-(dimethylamino)ethyl](methyl)amino}-6-isopropyloxy-5-{[5-chloro-4-(1-methyl-1H-pyrrolo[2,3-b]pyridin-5-yl)pyrimidin-2-yl]amino}pyridin-3-yl}acrylamide] | 
19 | 210 nM | 7.22 nM | 2.23 nM | C=CC(=O)Nc1cc(Nc2ncc(F)c(-c3cn(C)c4ccccc34)n2)c(OC(C)C)nc1N(C)CCN(C)C [Example 11 compound, N-{2-{[2-(dimethylamino)ethyl](methyl)amino}-6-isopropyloxy-5-{5-fluoro-[4-(1-methyl-1H-indol-3-yl)pyrimidin-2-yl]amino}pyridin-3-yl}acrylamide] | 
